Results taken from the CheMixHub viscosity set.
± gives the uncertainty stated by the source.

Assay: xn = mol fraction of the nth substance listed

CCNc1ccccc1 + Brc1ccccc1
viscosity [mPa·s], 101 kPa
Conditions	303.15 K	308.15 K
x1 = 0.0714	1.056 ± 0.012	0.995 ± 0.012
x1 = 0.1264	1.092 ± 0.012	1.023 ± 0.012
x1 = 0.1965	1.139 ± 0.013	1.06 ± 0.012
x1 = 0.2605	1.183 ± 0.013	1.095 ± 0.013
x1 = 0.3365	1.237 ± 0.013	1.137 ± 0.013
x1 = 0.3956	1.28 ± 0.013	1.171 ± 0.013
x1 = 0.4958	1.352 ± 0.014	1.229 ± 0.013
x1 = 0.5606	1.399 ± 0.014	1.268 ± 0.014
x1 = 0.6429	1.46 ± 0.014	1.319 ± 0.014
x1 = 0.7152	1.514 ± 0.015	1.364 ± 0.014
x1 = 0.7825	1.565 ± 0.015	1.407 ± 0.015
x1 = 0.8628	1.628 ± 0.015	1.46 ± 0.015
x1 = 0.9205	1.675 ± 0.016	1.499 ± 0.015

C1CCCCCC1 + C1CCCCC1
303.15 K, 101 kPa
Conditions	viscosity [mPa·s]
x2 = 0.1425	1.16 ± 0.0071
x2 = 0.2998	1.085 ± 0.0067
x2 = 0.4978	1.003 ± 0.0062
x2 = 0.6947	0.9296 ± 0.0058
x2 = 0.8482	0.8767 ± 0.0056

CC(=O)O + C1CCCCC1
303.15 K, 101 kPa
Conditions	viscosity [mPa·s]
x2 = 0.09517	0.8375 ± 0.0099
x2 = 0.1912	0.747 ± 0.0089
x2 = 0.2978	0.6933 ± 0.0083
x2 = 0.5005	0.6661 ± 0.008
x2 = 0.5952	0.6798 ± 0.0081
x2 = 0.6982	0.6567 ± 0.0079
x2 = 0.8007	0.6847 ± 0.0082
x2 = 0.9035	0.7306 ± 0.0087

CC(=O)O + C1CCOC1
298.15 K, 101 kPa
Conditions	viscosity [mPa·s]
x2 = 0.0847	1.112 ± 0.0094
x2 = 0.1723	1.087 ± 0.0092
x2 = 0.263	1.04 ± 0.0088
x2 = 0.357	0.9739 ± 0.0082
x2 = 0.4544	0.8952 ± 0.0076
x2 = 0.5554	0.8054 ± 0.0069
x2 = 0.6602	0.7083 ± 0.0061
x2 = 0.7691	0.6103 ± 0.0053
x2 = 0.8823	0.5294 ± 0.0046

ClCCCl + C1CCOC1
303.15 K, 101 kPa
Conditions	viscosity [mPa·s]
x2 = 0.0815	0.7038 ± 0.0058
x2 = 0.1436	0.6852 ± 0.0056
x2 = 0.2414	0.6571 ± 0.0054
x2 = 0.3055	0.6394 ± 0.0053
x2 = 0.4137	0.6105 ± 0.0051
x2 = 0.5015	0.5879 ± 0.0049
x2 = 0.6095	0.5606 ± 0.0047
x2 = 0.7289	0.5307 ± 0.0045
x2 = 0.8142	0.5097 ± 0.0044
x2 = 0.9176	0.485 ± 0.0042

ClCCl + C1CCOC1
298 K, 101 kPa
Conditions	viscosity [mPa·s]
x1 = 0.0981	0.455 ± 0.015
x1 = 0.2079	0.454 ± 0.015
x1 = 0.3064	0.453 ± 0.015
x1 = 0.3509	0.452 ± 0.015
x1 = 0.4032	0.451 ± 0.015
x1 = 0.4519	0.45 ± 0.015
x1 = 0.4994	0.449 ± 0.015
x1 = 0.5531	0.447 ± 0.015
x1 = 0.5994	0.445 ± 0.015
x1 = 0.6477	0.443 ± 0.015
x1 = 0.6696	0.441 ± 0.015
x1 = 0.7756	0.437 ± 0.015
x1 = 0.7999	0.435 ± 0.015
x1 = 0.9011	0.428 ± 0.015

ClCCCl + C1COCCO1
303.15 K, 101.33 kPa
Conditions	viscosity [mPa·s]
x2 = 0.0462	0.7468 ± 0.0055
x2 = 0.1984	0.7909 ± 0.0058
x2 = 0.2786	0.8101 ± 0.0059
x2 = 0.3663	0.8307 ± 0.006
x2 = 0.4515	0.8512 ± 0.0062
x2 = 0.567	0.8832 ± 0.0064
x2 = 0.6362	0.9068 ± 0.0066
x2 = 0.7673	0.9595 ± 0.0069
x2 = 0.8428	0.996 ± 0.0072
x2 = 0.9185	1.037 ± 0.0075

ClCCl + C1COCCO1
viscosity [mPa·s], 101 kPa
Conditions	x1 = 0.117	x1 = 0.1716	x1 = 0.2883	x1 = 0.4089	x1 = 0.4973	x1 = 0.5905	x1 = 0.7057	x1 = 0.7928	x1 = 0.902
293.15 K	1.112 ± 0.011	1.045 ± 0.01	0.946 ± 0.009	0.841 ± 0.008	0.76 ± 0.008	0.691 ± 0.007	0.612 ± 0.006	0.553 ± 0.006	0.485 ± 0.005
298.15 K	1.027 ± 0.01	0.97 ± 0.01	0.882 ± 0.009	0.786 ± 0.008	0.713 ± 0.007	0.654 ± 0.007	0.579 ± 0.006	0.525 ± 0.005	0.46 ± 0.005
